Target: cloned human NR1/NR2B ion channels (Homo sapiens (Human), UniProt Q05586+Q13224)
Assay: HNR2BC: effects of test articles on cloned human NR1/NR2B ion channels expressed in mammalian cells (FLIPR calcium flux)
Format: cell-based
Conditions: cloned human NR1/NR2B, Table 5
Description: HNR2BC: Effects of Test Articles on Cloned Human NR1/NR2B Ion Channels Expressed in Mammalian Cells
NMDA receptors are ion channels that are highly permeable to Ca^2+ ions, rendering it possible to monitor NMDA receptor function using cell-based calcium flux assay. In this assay, co-agonists glutamate and glycine are added to cells heterologously expressing human GluN1/GluN2B NMDA receptors to initiate cellular Ca^2+ influx. The time course of the changes in intracellular calcium is measured using a fluorescent dye and a FLIPR (Fluorometric Imaging Plate Reader) device.
Twenty four hours before measurements, the expression of the NMDA receptors in the stable cell line is induced with Tet-On inducible system in the presence of a non-selective NMDA receptor blocker. On the day of the experiment, cell culture media is carefully washed and the cells are loaded with Calcium 5 Dye Kit (Molecular Devices) in dye loading buffer containing 137 mM NaCl, 4 mM KCl, 2 mM CaCl2, 0.5 mM MgCl2, 10 mM HEPES and 5 mM D-glucose; pH 7.4. After 1 h incubation at the room temperature, the dye is washed away with the assay buffer (137 mM NaCl, 4 mM KCl, 2 mM CaCl2, 0.01 mM EDTA, 10 mM HEPES and 5 mM D-glucose; pH 7.4) In the FLIPR TETRA reader, various concentrations of the test compounds are added to the cells for 5 min while fluorescence is monitored to detect potential agonist activity. Next, co-agonists, glutamate and glycine are added for another 5 minutes. The concentration of glutamate corresponding to ˜EC80 is used to maximize the assay's signal window and ability to detect NMDA receptor antagonists and negative allosteric modulators. A saturating concentration (10 μM) of glycine is also present in the assay. […] The fluorescent signal in the presence of test compounds is quantified and normalized to the signal defined by the appropriate control wells.

Chain of cloned human NR1/NR2B ion channels (Q13224 27-1484, other chains not shown): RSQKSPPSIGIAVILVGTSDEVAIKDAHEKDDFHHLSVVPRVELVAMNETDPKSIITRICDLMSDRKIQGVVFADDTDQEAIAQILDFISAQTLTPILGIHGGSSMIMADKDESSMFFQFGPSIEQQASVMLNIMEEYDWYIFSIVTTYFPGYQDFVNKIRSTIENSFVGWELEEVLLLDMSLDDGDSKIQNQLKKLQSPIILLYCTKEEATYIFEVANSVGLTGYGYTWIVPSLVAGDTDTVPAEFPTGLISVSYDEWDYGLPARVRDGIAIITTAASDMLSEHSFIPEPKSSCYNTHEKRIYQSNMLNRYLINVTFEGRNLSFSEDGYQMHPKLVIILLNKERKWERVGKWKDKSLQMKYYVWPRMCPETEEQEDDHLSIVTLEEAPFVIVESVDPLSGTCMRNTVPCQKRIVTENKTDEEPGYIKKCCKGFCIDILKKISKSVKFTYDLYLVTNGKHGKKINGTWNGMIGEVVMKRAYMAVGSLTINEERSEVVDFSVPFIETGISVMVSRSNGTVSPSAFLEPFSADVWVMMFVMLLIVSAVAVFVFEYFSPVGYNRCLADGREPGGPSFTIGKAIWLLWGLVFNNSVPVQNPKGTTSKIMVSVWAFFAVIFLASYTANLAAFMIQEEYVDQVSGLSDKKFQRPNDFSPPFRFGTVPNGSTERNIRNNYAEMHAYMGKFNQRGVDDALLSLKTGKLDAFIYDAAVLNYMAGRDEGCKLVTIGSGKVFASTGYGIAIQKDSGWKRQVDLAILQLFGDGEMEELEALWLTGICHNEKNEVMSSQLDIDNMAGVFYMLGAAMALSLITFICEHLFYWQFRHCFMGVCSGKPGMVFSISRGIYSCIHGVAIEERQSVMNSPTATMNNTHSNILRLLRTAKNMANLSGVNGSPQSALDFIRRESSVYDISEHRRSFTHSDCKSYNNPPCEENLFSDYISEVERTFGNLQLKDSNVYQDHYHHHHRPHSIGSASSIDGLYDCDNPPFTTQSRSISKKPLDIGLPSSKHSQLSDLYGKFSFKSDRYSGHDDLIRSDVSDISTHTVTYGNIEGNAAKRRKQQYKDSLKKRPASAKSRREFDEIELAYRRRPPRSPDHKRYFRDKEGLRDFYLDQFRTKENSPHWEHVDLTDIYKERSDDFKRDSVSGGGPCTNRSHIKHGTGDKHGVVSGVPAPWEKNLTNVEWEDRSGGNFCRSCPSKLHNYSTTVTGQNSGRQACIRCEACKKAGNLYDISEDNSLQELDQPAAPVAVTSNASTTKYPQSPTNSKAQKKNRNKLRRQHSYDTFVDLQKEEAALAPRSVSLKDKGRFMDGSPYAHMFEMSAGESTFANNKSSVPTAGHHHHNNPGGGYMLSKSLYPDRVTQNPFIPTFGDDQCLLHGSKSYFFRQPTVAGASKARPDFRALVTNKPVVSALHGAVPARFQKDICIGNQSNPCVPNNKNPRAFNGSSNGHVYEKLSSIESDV

IC50	pIC50	SMILES
0.0501 µM		O=C(Cn1cc(Br)c2ncc(-c3ccc(F)cc3)cc21)N1CCOCC1 [Example 20, 2-[3-Bromo-6-(4-fluorophenyl)pyrrolo[3,2-b]pyridin-1-yl]-1-morpholino-ethanone]
0.0398 µM		Cc1cccc(-c2cnc3c(Br)cn(CC(=O)NC4CC4)c3c2)c1 [Example 21, 2-[3-Bromo-6-(m-tolyl)pyrrolo[3,2-b]pyridin-1-yl]-N-cyclopropyl-acetamide]
0.0251 µM		Cc1cccc(-c2cnc3c(Br)cn(CC(=O)N4CCC4)c3c2)c1 [Example 22, 1-(Azetidin-1-yl)-2-[3-bromo-6-(m-tolyl)pyrrolo[3,2-b]pyridin-1-yl]ethanone]
0.0501 µM		Cc1cccc(-c2cnc3c(Br)cn(CC(=O)N4CCCC4)c3c2)c1 [Example 23, 2-[3-Bromo-6-(m-tolyl)pyrrolo[3,2-b]pyridin-1-yl]-1-pyrrolidin-1-yl-ethanone]
0.1 µM		Cc1cccc(-c2cnc3c(Br)cn(CC(=O)N4CCOCC4)c3c2)c1 [Example 24, 2-[3-Bromo-6-(m-tolyl)pyrrolo[3,2-b]pyridin-1-yl]-1-morpholino-ethanone]
0.0794 µM		Cc1cc(-c2cnc3c(Cl)cn(CC(=O)N4CC(F)(F)C4)c3c2)ccc1F [Example 25, 2-[3-Chloro-6-(4-fluoro-3-methyl-phenyl)pyrrolo[3,2-b]pyridin-1-yl]-1-(3,3-difluoroazetidin-1-yl)ethanone]
0.0398 µM		Cc1cc(-c2cnc3c(Cl)cn(CC(=O)N4CC(F)C4)c3c2)ccc1F [Example 26, 2-[3-Chloro-6-(4-fluoro-3-methyl-phenyl)pyrrolo[3,2-b]pyridin-1-yl]-1-(3-fluoroazetidin-1-yl)ethanone]
0.0501 µM		Cc1cn(CC(=O)N2CCCC2)c2cc(-c3ccc(F)cc3)cnc12 [Example 27, 2-[6-(4-Fluorophenyl)-3-methyl-pyrrolo[3,2-b]pyridin-1-yl]-1-pyrrolidin-1-yl-ethanone]
0.2 µM		Cc1cn(CC(=O)N2CCOCC2)c2cc(-c3ccc(F)cc3)cnc12 [Example 28, 2-[6-(4-Fluorophenyl)-3-methyl-pyrrolo[3,2-b]pyridin-1-yl]-1-morpholino-ethanone]
0.02 µM		O=C(Cn1cc(Cl)c2ncc(-c3ccc(F)c(F)c3)cc21)N1CCC1 [Example 29, 1-(Azetidin-1-yl)-2-[3-chloro-6-(3,4-difluorophenyl)pyrrolo[3,2-b]pyridin-1-yl]ethanone]
0.02 µM		O=C(Cn1cc(Cl)c2ncc(-c3ccc(F)c(F)c3)cc21)N1CC(F)C1 [Example 30, 2-[3-Chloro-6-(3,4-difluorophenyl)pyrrolo[3,2-b]pyridin-1-yl]-1-(3-fluoroazetidin-1-yl)ethanone]
3.16 µM		Cc1cc2ncc(-c3ccc(F)cc3)cc2n1CC(=O)N1CCOCC1 [Example 31, 2-[6-(4-Fluorophenyl)-2-methyl-pyrrolo[3,2-b]pyridin-1-yl]-1-morpholino-ethanone]
0.398 µM		Cc1cn(CC(=O)NC2CC2)c2cc(-c3ccc(F)cc3)cnc12 [Example 32, N-Cyclopropyl-2-[6-(4-fluorophenyl)-3-methyl-pyrrolo[3,2-b]pyridin-1-yl]acetamide]
0.0631 µM		Cc1cn(CC(=O)N2CCC2)c2cc(-c3ccc(F)cc3)cnc12 [Example 33, 1-(Azetidin-1-yl)-2-[6-(4-fluorophenyl)-3-methyl-pyrrolo[3,2-b]pyridin-1-yl]ethanone]
	7.8	O=C(Cn1cc(Cl)c2ncc(-c3ccc(F)c(F)c3)cc21)N1CC(F)(F)C1 [Example 34, 2-[3-Chloro-6-(3,4-difluorophenyl)pyrrolo[3,2-b]pyridin-1-yl]-1-(3,3-difluoroazetidin-1-yl)ethanone]
0.2 µM		O=C(Cn1cc(Cl)c2ncc(-c3ccc(F)c(C(F)(F)F)c3)cc21)N1CC(F)C1 [Example 35, 2-[3-Chloro-6-[4-fluoro-3-(trifluoromethyl)phenyl]pyrrolo[3,2-b]pyridin-1-yl]-1-(3-fluoroazetidin-1-yl)ethanone]
0.1 µM		O=C(Cn1cc(Cl)c2ncc(-c3cccc(C(F)(F)F)c3)cc21)N1CC(F)(F)C1 [Example 36, 2-[3-Chloro-6-[3-(trifluoromethyl)phenyl]pyrrolo[3,2-b]pyridin-1-yl]-1-(3,3-difluoroazetidin-1-yl)ethanone]
1 µM		Cc1cc2ncc(-c3ccc(F)cc3)cc2n1CC(=O)N1CCCC1 [Example 37, 2-[6-(4-Fluorophenyl)-2-methyl-pyrrolo[3,2-b]pyridin-1-yl]-1-pyrrolidin-1-yl-ethanone]
5.01 µM		Cc1cc2ncc(-c3ccc(F)cc3)cc2n1CC(=O)NC1CC1 [Example 38, N-Cyclopropyl-2-[6-(4-fluorophenyl)-2-methyl-pyrrolo[3,2-b]pyridin-1-yl]acetamide]
0.0316 µM		O=C(Cn1cc(Cl)c2ncc(-c3cc(F)c(F)c(F)c3)cc21)N1CC(F)C1 [Example 39, 2-[3-Chloro-6-(3,4,5-trifluorophenyl)pyrrolo[3,2-b]pyridin-1-yl]-1-(3-fluoroazetidin-1-yl)ethanone]
0.501 µM		O=C(Cn1cc(Cl)c2ncc(-c3ccc(F)c(C(F)(F)F)c3)cc21)N1CC(F)(F)C1 [Example 40, 2-[3-Chloro-6-[4-fluoro-3-(trifluoromethyl)phenyl]pyrrolo[3,2-b]pyridin-1-yl]-1-(3,3-difluoroazetidin-1-yl)ethanone]
0.0251 µM		Cc1cccc(-c2cnc3cc(C)n(CC(=O)N4CCC4)c3c2)c1 [Example 41, 1-(Azetidin-1-yl)-2-[2-methyl-6-(m-tolyl)pyrrolo[3,2-b]pyridin-1-yl]ethanone]
2.51 µM		Cc1cc2ncc(-c3ccccc3)cc2n1CC(=O)N1CCCC1 [Example 42, 2-(2-Methyl-6-phenyl-pyrrolo[3,2-b]pyridin-1-yl)-1-pyrrolidin-1-yl-ethanone]
0.2 µM		Cc1cccc(-c2cnc3cc(C)n(CC(=O)N4CCCC4)c3c2)c1 [Example 44, 2-[2-Methyl-6-(m-tolyl)pyrrolo[3,2-b]pyridin-1-yl]-1-pyrrolidin-1-yl-ethanone]
0.501 µM		Cc1cccc(-c2cnc3cc(C)n(CC(=O)N4CCOCC4)c3c2)c1 [Example 45, 2-[2-Methyl-6-(m-tolyl)pyrrolo[3,2-b]pyridin-1-yl]-1-morpholino-ethanone]
0.501 µM		Cc1cc2ncc(-c3ccc(F)cc3)cc2n1CC(=O)N1CCC1 [Example 46, 1-(Azetidin-1-yl)-2-[6-(4-fluorophenyl)-2-methyl-pyrrolo[3,2-b]pyridin-1-yl]ethanone]
0.0794 µM		Cc1cc2ncc(-c3ccccc3)cc2n1CC(=O)N1CCC1 [Example 47, 1-(Azetidin-1-yl)-2-(2-methyl-6-phenyl-pyrrolo[3,2-b]pyridin-1-yl)ethanone]
0.631 µM		O=C(Cn1cc(Cl)c2ncc(-c3cccc(C(F)(F)F)c3)cc21)N1CC(F)C1 [Example 48, 2-[3-Chloro-6-[3-(trifluoromethyl)phenyl]pyrrolo[3,2-b]pyridin-1-yl]-1-(3-fluoroazetidin-1-yl)ethanone]
0.2 µM		O=C(Cn1cc(Cl)c2ncc(-c3cc(F)c(F)c(F)c3)cc21)N1CC(F)(F)C1 [Example 49, 2-[3-Chloro-6-(3,4,5-trifluorophenyl)pyrrolo[3,2-b]pyridin-1-yl]-1-(3,3-difluoroazetidin-1-yl)ethanone]
